Molecular target: T1, CRF1 receptor (Rattus norvegicus, UniProt P35353)
T1 construct: from tissue; host or cells: rat frontal cortex membranes
T1 sequence (P35353 24-415): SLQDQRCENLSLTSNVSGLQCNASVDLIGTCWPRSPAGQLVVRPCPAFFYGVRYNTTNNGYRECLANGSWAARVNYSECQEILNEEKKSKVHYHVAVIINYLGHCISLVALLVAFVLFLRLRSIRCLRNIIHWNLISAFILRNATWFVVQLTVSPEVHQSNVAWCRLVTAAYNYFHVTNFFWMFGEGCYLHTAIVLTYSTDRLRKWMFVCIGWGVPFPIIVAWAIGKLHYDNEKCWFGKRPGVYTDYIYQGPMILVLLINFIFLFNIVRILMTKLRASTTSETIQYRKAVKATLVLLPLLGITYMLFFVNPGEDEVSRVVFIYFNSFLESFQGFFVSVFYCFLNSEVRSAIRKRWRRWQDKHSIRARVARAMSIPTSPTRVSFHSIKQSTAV
Test: CRF1 Receptor Binding Assay (rat brain membranes, 125I-ovine-CRF)
Conditions: read-out: Ki, the binding constant to the CRF1 receptor
Description: The following is a description of the isolation of rat brain membranes for use in the standard binding assay as well as a description of the binding assay itself. It is based on a modified protocol described by De Souza (De Souza, 1987).
To prepare brain membranes for binding assays, rat frontal cortex is homogenized in 10 mL of ice cold tissue buffer (50 mM HEPES buffer pH 7.0, containing 10 mM MgCl2, 2 mM EGTA, 1 μg/ml aprotinin, 1 μg/ml leupeptin and 1 μg/ml pepstatin). The homogenate is centrifuged at 48,000×g for 10 min. and the resulting pellet rehomogenized in 10 mL of tissue buffer. Following an additional centrifugation at 48,000×g for 10 min., the pellet is resuspended to a protein concentration of 300 μg/mL.
Binding assays are performed in 96 well plates at a final volume of 300 μL. The assays are initiated by the addition of 150 μL membrane suspension to 150 μL of assay buffer containing ^125I-ovine-CRF (final concentration 150 pM) and various concentrations of inhibitors. […] Filters are assessed for radioactivity in a Packard TopCount. Nonspecific binding is determined in the presence of excess (10 μM) α-helical CRF. […]
IC50 values are calculated using standard methods known in the art, such as with the non-linear curve fitting program RS/1 (BBN Software Products Corp., Cambridge, Mass.).

| SMILES | Ki [nM] |
| --- | --- |
| CCc1nc(-c2ccc(N(C)C)nc2C)c(CC)nc1N[C@@H]1c2ccccc2C[C@@H]1OC(C)=O [Example 1, (1R,2S)Acetic acid 1-[5-(6-dimethylamino-2-methyl-pyridin-3-yl)-3,6-diethyl-pyrazin-2-ylamino]-indan-2-yl ester] | 19 |
| CCO[C@H]1Cc2ccccc2[C@H]1Nc1nc(CC)c(-c2ccc(N(C)C)nc2C)nc1CC [Example 3, (1R,2S)[5-(6-Dimethylamino-2-methyl-pyridin-3-yl)-3,6-diethyl-pyrazin-2-yl]-(2-ethoxy-indan-1-yl)-amine] | 13 |

Source: patent publication US20060211710A1, “Substituted aryl 1,4-pyrazine derivatives” (Pfizer Inc, priority 2005, published 2006)
